In patent US7033509B2 (priority 2000, dated 2006):
“And” between values parts separate entries of the source, which are not always exact repeats. Identical values can stand only once. Like-named read-outs stand apart in the source and are kept apart here.

Key:
[1] = test system: bacteria on the surface of peach; format: cell-based
[2] = test system: fungi on the surface of peach; format: cell-based
[3] = test system: bacteria on the surface of potato; format: cell-based
[4] = test system: fungi on the surface of potato; format: cell-based
[5] = test system: bacteria on the surface of lettuce; format: cell-based
[6] = test system: fungi on the surface of lettuce; format: cell-based
[7] = test system: bacteria on the surface of apple; format: cell-based
[8] = test system: fungi on the surface of apple; format: cell-based
[9] = test system: bacteria on the surface of strawberry; format: cell-based
[10] = test system: fungi on the surface of strawberry; format: cell-based
[11] = test system: bacteria on the surface of avocado; format: cell-based
[12] = test system: fungi on the surface of avocado; format: cell-based
[13] = test system: bacteria on the surface of rockmelon; format: cell-based
[14] = test system: fungi on the surface of rockmelon; format: cell-based
[15] = test system: bacteria on the surface of orange; test: Orange (L) laboratory dipping, bacteria; format: cell-based; conditions: concentrations of 3, 10 & 30 ppm iodine used
[16] = test system: fungi on the surface of orange; test: Orange (L) laboratory dipping, fungi; format: cell-based; conditions: concentrations of 3, 10 & 30 ppm iodine used
[17] = test system: bacteria on the surface of nectarine; test: Nectarine (L) laboratory dipping, bacteria; format: cell-based; conditions: concentrations of 3, 10 & 30 ppm iodine used
[18] = test system: fungi on the surface of nectarine; test: Nectarine (L) laboratory dipping, fungi; format: cell-based; conditions: concentrations of 3, 10 & 30 ppm iodine used
[19] = test system: bacteria on the surface of potato; test: Potato (L) laboratory dipping, bacteria; format: cell-based; conditions: concentrations of 3, 10 & 30 ppm iodine used
[20] = test system: fungi on the surface of potato; test: Potato (L) laboratory dipping, fungi; format: cell-based; conditions: concentrations of 3, 10 & 30 ppm iodine used
[21] = test system: bacteria on the surface of tomato; test: Tomato (L) laboratory dipping, bacteria; format: cell-based; conditions: 10, 20, 30 ppm iodine
[22] = test system: fungi on the surface of tomato; test: Tomato (L) laboratory dipping, fungi; format: cell-based; conditions: 10, 20, 30 ppm iodine
[23] = test system: bacteria on the surface of lettuce; test: Lettuce (L) laboratory dipping, bacteria; format: cell-based; conditions: 10, 20, 30 ppm iodine
[24] = test system: fungi on the surface of lettuce; test: Lettuce (L) laboratory dipping, fungi; format: cell-based; conditions: 10, 20, 30 ppm iodine
bacteria on bean sprouts = test: Bean sprouts (ISU), bacteria; format: cell-based; conditions: 10, 20, 30 ppm iodine
fungi on bean sprouts = test: Bean sprouts (ISU), fungi; format: cell-based; conditions: 10, 20, 30 ppm iodine
[25] = test system: bacteria and fungi found on fresh fruit and vegetables; test: Summary of efficacy results: comparison bacteria/fungi and iodine/chlorine; format: cell-based
[26] = test system: naturally occurring surface organisms on fruits and vegetables; test: Dipping time effect on efficacy (potatoes, oranges); format: cell-based, bacteria and fungi; conditions: iodine dips, one to four minutes
Escherichia coli = conditions: compared with chlorine, especially at the higher temperature and pH values; cited from earlier work

SMILES: II
- Bacteria—dose for ~1.5 log10 reduction [1]: 10 ppm
- Fungi—dose for ~1.5 log10 reduction [2]: 30 ppm
- Bacterial population per cm^2 Actual count [3]: 370 per cm^2 and 260 per cm^2 and 249 per cm^2
- Bacterial population per cm^2 Log10 count [3]: 2.54 log10 units and 2.34 log10 units and 2.38 log10 units
- Bacterial population per cm^2 Log10 reduction [3]: 0.39 ab log10 units and 0.58 b log10 units and 0.54 b log10 units
- Bacteria—dose for ~1.5 log10 reduction [3]: >30 ppm
- Fungal population per cm^2 Actual count [4]: 2 per cm^2 and 3 per cm^2
- Fungi—dose for ~1.5 log10 reduction [4]: 10 ppm
- Bacteria—dose for ~1.5 log10 reduction [5]: 20 ppm
- Fungal population per cm^2 Log10 count [6]: −0.12 log10 units and −0.35 log10 units
- Fungi—dose for ~1.5 log10 reduction [6]: 10 ppm
- Bacteria—dose for ~1.5 log10 reduction [7]: 10 ppm
- Fungi—dose for ~1.5 log10 reduction [8]: 10 ppm
- Bacteria—dose for ~1.5 log10 reduction [9]: >30 ppm
- Fungi—dose for ~1.5 log10 reduction [10]: 30 ppm
- Bacteria—dose for ~1.5 log10 reduction [11]: 10 ppm
- Fungi—dose for ~1.5 log10 reduction [12]: 20 ppm
- Bacterial population per cm^2 Actual count [13]: 19,514 per cm^2 and 14,456 per cm^2 and 10,028 per cm^2
- Bacterial population per cm^2 Log10 count [13]: 4.26 log10 units and 4.15 log10 units and 3.98 log10 units
- Bacterial population per cm^2 Log10 reduction [13]: 0.83 b log10 units and 0.93 bc log10 units and 1.10 cd log10 units
- Bacteria—dose for ~1.5 log10 reduction [13]: >30 ppm
- Fungi—dose for ~1.5 log10 reduction [14]: 20 ppm
- Bacteria—dose for ~1.5 log10 reduction [15]: 30 ppm
- Fungi—dose for ~1.5 log10 reduction [16]: 30 ppm
- Bacteria—dose for ~1.5 log10 reduction [17]: 3.3 ppm
- Fungi—dose for ~1.5 log10 reduction [18]: 10 ppm
- Bacteria—dose for ~1.5 log10 reduction [19]: >30 ppm
- Fungi—dose for ~1.5 log10 reduction [20]: >30 ppm
- Bacteria—dose for ~1.5 log10 reduction [21]: 20 ppm
- Fungi—dose for ~1.5 log10 reduction [22]: 20 ppm
- Bacteria—dose for ~1.5 log10 reduction [23]: 30 ppm
- Fungi—dose for ~1.5 log10 reduction [24]: >30 ppm
- Bacteria—dose for ~1.5 log10 reduction (bacteria on bean sprouts): 30 ppm
- Fungi—dose for ~1.5 log10 reduction (fungi on bean sprouts): 30 ppm
- Better Control of Bacteria/Fungi ([25]; Apples (ISU)): Fungi
- Better control by iodine/chlorine ([25]; Apples (ISU)): Iodine
- Better Control of Bacteria/Fungi ([25]; Avocado (ISU)): Bacteria
- Better control by iodine/chlorine ([25]; Avocado (ISU)): Iodine
- Better control by iodine/chlorine ([25]; Bean sprouts (ISU)): Iodine
- Better Control of Bacteria/Fungi ([25]; Lettuce (ISU)): Fungi
- Better control by iodine/chlorine ([25]; Lettuce (ISU)): Iodine
- Better Control of Bacteria/Fungi ([25]; Lettuce (L)): Bacteria
- Better control by iodine/chlorine ([25]; Lettuce (L)): Chlorine
- Better Control of Bacteria/Fungi ([25]; Nectarine (L)): Bacteria
- Better control by iodine/chlorine ([25]; Nectarine (L)): Iodine
- Better Control of Bacteria/Fungi ([25]; Orange (L)): Bacteria
- Better control by iodine/chlorine ([25]; Orange (L)): Chlorine
- Better Control of Bacteria/Fungi ([25]; Peach (L)): Bacteria
- Better control by iodine/chlorine ([25]; Peach (L)): Iodine
- Better Control of Bacteria/Fungi ([25]; Potato (ISU)): Fungi
- Better control by iodine/chlorine ([25]; Potato (ISU)): Iodine
- Better Control of Bacteria/Fungi ([25]; Potato (L)): Fungi
- Better control by iodine/chlorine ([25]; Potato (L)): Iodine
- Better Control of Bacteria/Fungi ([25]; Rockmelon (ISU)): Fungi
- Better control by iodine/chlorine ([25]; Rockmelon (ISU)): Same effectiveness
- Better Control of Bacteria/Fungi ([25]; Strawberry (ISU)): Fungi
- Better control by iodine/chlorine ([25]; Strawberry (ISU)): Iodine
- Better Control of Bacteria/Fungi ([25]; Tomato (L)): Fungi
- Better control by iodine/chlorine ([25]; Tomato (L)): Iodine
- effectiveness compared with an equivalent concentration of chlorine ([25]; over the range of products and concentrations used): considerably more effective
- effect of dip time on effectiveness [26]: equivalent in effectiveness to doubling the dip concentration
- efficiency for the control of Escherichia coli in dirty water (Escherichia coli): greater than that of chlorine
